A short description of test [1]: Flavor evaluation of water solutions. The note with it: for Flavor Profile: water solution. As for the experimental part:
A series of water solutions of N-(4-methoxyphenyl)-2-methyl-2-(1-methylcyclohexyl)propenamide (Structure A4) were prepared and evaluated for flavor. The flavor profile is reported in the following:
Preparation and Evaluation of N-(4-Methoxyphenyl)-2-methyl-2-(1-methylcyclohexyl)propenamide (Structure A4) and 1-(tert-Butyl)-N-(4-methoxyphenyl)cyclohexane-1-carboxamide (Structure B4) Mixtures of Different Ratios: Mixtures of N-(4-methoxyphenyl)-2-methyl-2-(1-methylcyclohexyl)propenamide (Structure A4) and 1-(tert-butyl)-N-(4-methoxyphenyl)cyclohexane-1-carboxamide (Structure B4) were prepared by mixing two compounds at different ratios. “Ratio” refers to the weight ratio of Structure A4 and Structure B4. Water solutions of the mixtures (375 ppb) were prepared and evaluated for flavor in water, MSG solution (5000 ppm) and a salt solution (containing NaCl of 3750 ppm, Ribotide® of 35 ppm and MSG of 840 ppm), respectively. Water, MSG solution and the salt solution were each used as base controls.

Test [2] is described as follows: Summary statements over all flavor evaluations.
A short description of test [3]: Flavor evaluation in monosodium glutamate (MSG) solution (5000 ppm). The protocol: A monosodium glutamate (MSG) solution (5000 ppm) was prepared in water. The flavor profile of the MSG solution with added Structure A4 is reported in the following:
As used herein, the term “synergistic umami” refers to the umami effect of the Structure A4 and MSG combination that is stronger than the added umami effect of individual Structure A4 and MSG. […]

Test [4] can be described thus: Flavor evaluation in Ribotide solution (1000 ppm). As to conditions: 2 ppm added in Ribotide solution (1000 ppm). The text has this:
The Structure A4 and B4 mixture of 50:50 ratio ([…]) was further evaluated in Ribotide® (1000 ppm).

Turning to `COc1ccc(NC(=O)C(C)(C)C2(C)CCCCC2)cc1` [Structure A4, N-(4-Methoxyphenyl)-2-methyl-2-(1-methylcyclohexyl)propenamide], the “Flavor Profile” value was “Strong umami, cooling, tingly, tongue scratching” in test [1] (Structure A4 1 ppm); “Strong and lingering umami, good mouthfeel, cooling, tingling” in test [1] (Structure A4 2 ppm); “Strong and lingering umami, moderate and lingering cooling, lingering bitter, drying” in test [1] (Structure A4 5 ppm); “Moderate umami, moderate cooling, lingering bitter, tingling, brackish linger” in test [1] (Structure A4 10 ppm); “Moderate umami, moderate cooling, lingering bitter, creamy, mineral, drying” in test [1] (Structure A4 15 ppm); “Very slight bitter, minimal cooling, drying linger, minimal umami” in test [1] (Structure A4 100 ppb). The “Flavor Profile” value was “Slight cooling, slight bitter, drying, very slight umami” in test [1] (Structure A4 200 ppb); “Slight bitter, cooling, umami, linger” in test [1] (Structure A4 375 ppb); “Clear and moderate umami, slight bitter, cooling, linger” in test [1] (Structure A4 500 ppb); “Clear and moderate umami, cooling, slightly soapy, slightly waxy” in test [1] (Structure A4 750 ppb). Moreover, the Umami in water result in test [1] (water solutions, all concentrations 100 ppb to 15 ppm) is “exhibited umami”. In addition, the Umami character result in test [2] (in all evaluations) is “provided upfront and lingering umami character”. Besides, in test [2] (when combined with Structure B4 and/or an additional umami compound), the Synergistic umami result was “achieved synergistic umami”. Besides, the “Umami Strength” value in test [3] (MSG solution (5000 ppm) with added Structure A4 1 ppm) was “Synergistic umami of Structure A4 and MSG, lingering umami”; in test [3] (MSG solution (5000 ppm) with added Structure A4 2 ppm), “Synergistic umami of Structure A4 and MSG, lingering umami”; in test [3] (MSG solution (5000 ppm) with added Structure A4 5 ppm), “Synergistic umami of Structure A4 and MSG, strong cooling”; in test [3] (MSG solution (5000 ppm) with added Structure A4 10 ppm), “Synergistic umami of Structure A4 and MSG, strong cooling”; in test [3] (MSG solution (5000 ppm) with added Structure A4 15 ppm), “Synergistic umami of Structure A4 and MSG, strong cooling”; in test [3] (MSG solution (5000 ppm) with added Structure A4 100 ppb), “Added effect of Structure A4 and MSG”. For the same compound, the “Umami Strength” value in test [3] (MSG solution (5000 ppm) with added Structure A4 200 ppb) was “Synergistic umami of Structure A4 and MSG, lingering umami”; in test [3] (MSG solution (5000 ppm) with added Structure A4 375 ppb), “Synergistic umami of Structure A4 and MSG, lingering umami”; in test [3] (MSG solution (5000 ppm) with added Structure A4 500 ppb) it was “Synergistic umami of Structure A4 and MSG, lingering umami”; in test [3] (MSG solution (5000 ppm) with added Structure A4 750 ppb) it was “Synergistic umami of Structure A4 and MSG, lingering umami”. Moreover, the “Synergistic umami with MSG” value in test [3] (Structure A4 ranging from 200 ppb to 15 ppm and MSG (5000 ppm)) is “Synergistic umami was achieved”. In test [4], the “Synergistic umami in Ribotide solution” value is listed as “synergistic umami was also achieved”.
With `COc1ccc(NC(=O)C2(C(C)(C)C)CCCCC2)cc1` [Structure B4, 1-(tert-butyl)-N-(4-methoxyphenyl)cyclohexane-1-carboxamide], the Flavor in water result in test [1] (375 ppb in water) is “slight umami, slight sweetness and bitter linger”.

For the origin of these results see patent publication US20260191244A1, “NOVEL FLAVOR COMPOUNDS” (INTERNATIONAL FLAVORS & FRAGRANCES INC., priority 2022, published 2026).
